The values below come from patent US5250548A, “Angiotensin II receptor antagonists” (Abbott Laboratories, priority 1992, dated 1993).

Each structure is given as a SMILES string. Counter-ions that a name gives are not always drawn.

This assay concerns the target T1, angiotensin II receptor (Oryctolagus cuniculus, UniProt P34976).
T1 construct: Main abdominal aortas were removed and placed in Krebs-Henseleit buffer; from tissue; host or cells: main abdominal aorta rings (3 mm) of female New Zealand White rabbits
T1 sequence (P34976 1-359): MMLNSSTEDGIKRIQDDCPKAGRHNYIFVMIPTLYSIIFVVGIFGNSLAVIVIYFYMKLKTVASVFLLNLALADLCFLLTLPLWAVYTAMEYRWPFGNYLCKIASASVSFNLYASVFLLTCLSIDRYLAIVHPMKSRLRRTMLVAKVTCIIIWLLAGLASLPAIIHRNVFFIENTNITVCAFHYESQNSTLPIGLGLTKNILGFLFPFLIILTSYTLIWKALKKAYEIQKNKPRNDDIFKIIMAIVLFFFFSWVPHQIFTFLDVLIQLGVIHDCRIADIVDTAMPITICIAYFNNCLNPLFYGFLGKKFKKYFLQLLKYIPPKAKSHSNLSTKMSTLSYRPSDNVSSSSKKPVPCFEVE
As to the kind of experiment: Angiotensin II functional assay: antagonism of contraction of rabbit aorta (isolated tissue, Schild analysis). Also noted: species or system rabbit (female New Zealand White). The note with it: antagonist incubated 30 minutes, negative logarithm of antagonist concentration that requires doubling of the angiotensin II concentration; for Kb: read-out: pA2 (converted). As to the method: Antagonism of Contraction of Rabbit Aorta The protocol reported by A. T Chiu and […]. Wong, et al. Hypertension, 13, 489-497 (1989)) was followed with a few modifications. Female New Zealand White rabbits weighing 2-5 kg were sedated with carbon dioxide and then sacrificed. Main abdominal aortas were removed and placed in Krebs-Henseleit buffer at room temperature. The tissues were cleaned of extraneous connective tissue, cut into 3 mm rings, and suspended within a 10 mL tissue bath. All dilutions of peptide preparations were made with 0.3% aqueous BSA. The tissues were primed with 55 mM potassium chloride. Tissues were pre-loaded with 1 g of tension. Tension was recorded on a model 7 Grass polygraph using FT03 transducers. At the end of the equilibrium period, a control cumulative concentration-contractile response curve for angiotensin II (A II: 1×10^-10 -10^-8 M) was obtained. The tissue was washed several times until the baseline was reached. Forty five minutes later, test compound (antagonist) was added and the tissue was incubated for 30 minutes. The concentration-response curve for A II was then repeated in the presence of the test compound. One dose of antagonist was tested per tissue only. […] All responses to the control agonist were calculated as a percentage of the maximum response.

`CCCN(Cc1ccc(-c2ccccc2-c2nn[nH]n2)cc1)c1ncncc1C(=O)O` [Example 71, 4-{N-Propyl-N-[(2'-[1H-tetrazol-5yl]biphenyl-4-yl)methyl]amino}pyrimidine-5-carboxylic acid hydrochloride]: the Kb was 0.209 nM.
As for `CCCN(Cc1ccc(-c2ccccc2-c2nnn[nH]2)cc1)c1ncccc1C(=O)C(F)(F)C(=O)OCC` [Example 137, 3-[2,2-Difluoro-2-(ethoxycarbonyl)acetyl]-2-{N-propyl-N-[(2'-[1H-tetrazol-5-yl]biphenyl-4-yl]methyl]amino}pyridine], the Kb was 4.57 nM.
For the compound `CCCN(Cc1ccc(-c2ccccc2-c2nn[nH]n2)cc1)c1nc(F)ccc1C(=O)O` [Example 160, 2-{N-Propyl-N-[(2'-[1H-tetrazol-5-yl]biphenyl-4-yl)methyl]amino}-6-fluoropyridine-3-carboxylic acid], the Kb is 0.234 nM.
Still for that read-out and setting: the value for `CCCCN(Cc1ccc(-c2ccccc2-c2nn[nH]n2)cc1)c1nnccc1C(=O)O` [Example 169, 3-{N-Butyl-N-[(2'-[1H-tetrazol-5-yl]biphenyl-4-yl)methyl]amino}pyridazine-4-carboxylic acid] was 0.0891 nM; that for `CCCCN(Cc1ccc(-c2ccccc2-c2nnn[nH]2)cc1)c1nc(OC)ccc1C(=O)O` [Example 163, 2-{N-Butyl-N-[(2' -[1H-tetrazol-5-yl]biphenyl-4-yl)methyl]amino}-6-methoxypyridine-3-carboxylic acid] was 0.309 nM.
Turning to `CCCN(Cc1ccc(-c2ccccc2-c2nn[nH]n2)cc1)c1nnccc1C(=O)O` [Example 172, 3-{N-Propyl-N-[(2'-[1H-tetrazol-5-yl]biphenyl-4-yl)methyl]amino}pyridazine-4-carboxylic acid], the Kb is 0.214 nM.
As to `CCCCN(Cc1ccc(-c2ccccc2-c2nn[nH]n2)cc1)c1ncc(C(=O)O)cn1` [Example 167, 2-{N-Butyl-N-[(2'-[1H-tetrazol-5-yl]biphenyl-4-yl)methyl]amino}pyrimidine-5-carboxylic acid], the Kb was 3.31 nM.
Consider `CCCN(Cc1ccc(-c2ccccc2-c2nn[nH]n2)cc1)c1ncc(F)cc1C(=O)O` [Example 180, 5-Fluoro-2-{N-propyl-N-[(2'-[1H-tetrazol-5-yl]biphenyl-4-yl)methyl]amino}pyridine-3-carboxylic acid], for which the Kb is 0.912 nM.
In the case of `CCCCN(Cc1ccc(-c2ccccc2-c2nnn[nH]2)cc1)c1nc(F)ccc1C(=O)O` [Example 162, 2-{N-Butyl-N-[(2'-[1H-tetrazol-5-yl]biphenyl-4-yl)methyl]amino}-6-fluoropyridine-3-carboxylic acid], the Kb is 0.309 nM.
`CCCN(Cc1ccc(-c2ccccc2-c2nn[nH]n2)cc1)c1nccc(C)c1C(=O)O` [Example 194, 4-Methyl-2-{N-propyl-N-[(2'-[1H-tetrazol-5-yl]biphenyl-4-yl)methyl]amino}pyridine-3-carboxylic acid]: the Kb is 0.229 nM.
Turning to `O=C(O)c1cccnc1NCc1ccc(-c2ccccc2-c2nn[nH]n2)cc1` [Example 226], the Kb was 1.29 nM.
For the compound `CCCN(Cc1ccc(-c2ccccc2-c2nnn[nH]2)cc1)c1nc(C)ncc1C(=O)O` [Example 99, 2-Methyl-4-{N-propyl-N-[(2'-[1H-tetrazol-5-yl]biphenyl-4-yl)methyl]amino}pyrimidine-5-carboxylic acid], the pA2 came out at 9.60.
Turning to `CCCCN(Cc1ccc(-c2ccccc2-c2nnn[nH]2)cc1)c1ncncc1C(=O)OCOC(=O)C(C)(C)C` [Example 82, Pivaloyloxymethyl 4-{N-butyl-N-[(2'-[1H-tetrazol-5-yl]biphenyl-4-yl)methyl]amino}pyrimidine-5-carboxylate], the Kb is 0.331 nM.
As for `CCCN(Cc1ccc(-c2ccccc2-c2nn[nH]n2)cc1)c1ncccc1NS(=O)(=O)C(F)(F)F` [Example 147, 3-Trifluoromethanesulfonamido-2-{N-propyl-N-[(2'-[1H-tetrazol-5-yl]biphenyl-4-yl)methyl]amino}pyridine], the Kb was 0.631 nM.

As usually defined, the pA2 is the negative logarithm of the molar antagonist concentration that doubles the agonist concentration needed for the same response.
